Measurements taken from US7153858B2, “Arylpiperazinyl compounds” (Epix Delaware, Inc., priority 2003, dated 2006).
Entries after “also recorded” stand apart in the source; their conditions may differ. Counter-ions that a name gives are not always drawn.

Tests used:
Assay type in all cases: in vivo
C57B16/J mice = assay: Elevated Plus Maze (EPM); details: vs vehicle; for Open Arm Time / Proportion Open Arm Entries: HCl
From the text: (§1) Young adult male C57B16/J mice from Jackson Laboratory, Bar Harbor, Me. were used in the Elevated Plus Maze; 129 svev mice from Taconic, Germantown, N.Y. were used in the Stress-induced Hyperthermia, Open Field, and the Tail Suspension tests, and DBA/2J mice from Jackson Laboratory, Bar Harbor, Me. were used in the Forced Swim test. All mice were received at the age of 6 weeks and were assigned unique identification numbers. Animals were housed 4 per cage in polycarbonate cages with filter tops, cagemate identification maintained by tail marks. Animals were acclimated for 7 days and given food and water ad libitum. Mice were examined prior to initiation of the study at 8 weeks of age to assure adequate health and suitability. During the course of the study, 12-hour light/12-hour dark cycles were maintained with the light on at 7:00 a.m. The room temperature was maintained between 20 and 23° C. with a relative humidity maintained between 30% and 70%. Chow and water were provided ad libitum.
(§2) In each test, animals were randomly assigned across treatment groups and balanced by cage number. Ten animals were used in each treatment group. Mice for the Open Field and Stress-induced hyperthermia studies were handled once daily for 2 consecutive days prior to the testing. Mice assigned to the Elevated plus maze experiment were not handled to increase the stress level at the time of the testing.
(§3) All compounds were dissolved in sterile injectable water, which served as the vehicle control. All solutions were prepared on the day of the experiments. […] In all tests except for the tail suspension (TS) test, drugs were administered acutely; in the TS test, Compound A was administered once daily for 3 days (test day inclusive) prior to testing. Thirty minutes pretreatment time was used in all tests except for SIH in which case compounds were given to the animals one hr before the test.
The elevated plus maze is a test commonly used to assess anxiety in rodents. The maze consists of two closed arms (l×w×h: 15 cm×6 cm×30 cm) and two open arms (6 cm w×30 cm l) forming a cross, with a square center platform (6×6 cm). Rodents naturally fear open spaces and tend to spend more time in the closed arms. Anxiolytics will attenuate this fear of open spaces and will increase the number of time spent in open arms. All visible surfaces are made of a black acrylic. Each arm of the maze is placed on a support column 50 cm above the floor. The light intensity was ˜100 lux above the open arms and ˜70 lux above the closed arms. Animals were brought to the experimental room at least 1 hr before the test in the home cage (food and water available). Mice were placed in the center of the elevated plus maze facing an open arm, tested once, one at a time for a 5 min test. The time in the open/closed arms and the number of entries in the open/closed arms were recorded via video camera and used as a measure of anxiety. Mice were returned to the home cage after testing and then to the colony room.
(§4) All data were analyzed by comparing the groups treated with the test substance to the vehicle control or reference treated groups. Statistical analysis was performed by ANOVA followed by Fisher's post-hoc test where appropriate. […] Data are represented as the means and standard error to the mean (s.e.m).

129 svev mice [1] = assay: Stress-Induced Hyperthermia (SIH); details: 1 hr before test, HCl
From the text: as §1, §2, §3
Mice have a natural hyperthermic response to stress, which has been proposed as a measure of stress-induced anxiety (Olivier, Zethof, Ronken & van der Heyden, European Journal of Pharmacology 342(2–3): 177–82, 1998). Anxiolytics are known to decrease this hyperthermic response to stress. This test involves two measures of rectal temperature repeated in the same animal within a 10 min period. On the day prior to testing, animals were brought to the experimental room 1 hr prior to scheduled lights out and singly housed overnight with food and water ad libitum. On the morning of the experiment, animals were first injected with treatment compound or vehicle. One hr post treatment, the animal was removed from the holding cage and held in a supine position and had rectal temperature measured by using a rectal probe attached to a PhysiTemp thermometer (Fisher Scientific). For each animal tested, the rectal probe was cleaned with an alcohol pad and lubricated with sterile K-Y jelly and slowly inserted into the animal's rectum at a length of approximately 3–5 mm. The probe remained within the animal's rectum for approximately 5 sec or until body temperature reached stability, and the baseline rectal temperature (T1) was recorded. The animal was immediately placed back to the holding cage and after a 10-min interval a second rectal temperature (T2) was taken using the same procedure as T1. The animal was then returned to the home cage and at the completion of the experiment returned to the colony room.
as §4

129 svev mice [2] = assay: Open Field (OF), general motor activity; details: 40 min session
From the text: as §1, §2, §3
The open field activity monitor system (Med Associates, Inc.) measured general motor activity. The test was performed under normal lighting conditions (400 lux). Mice were brought into the experimental room and allowed at least 1 hr of acclimation. Thirty min after treatment, each mouse was placed into the testing enclosure (l×w×h: 27 cm×27 cm×20 cm) with an infrared beam array that automatically monitors the animal's activity. Eight animals of balanced treatment were tested at one time. The test session lasted 40 min and animals were returned to the home cages at the end of the session. The critical measures of this test includes locomotion (total distance traveled), rearing (vertical activity), number of center entries and percent time spent in the center area of the OF arena.
as §4

Coloboma mice = assay: Open Field, hyperlocomotor activity of Coloboma mutant mice (ADHD model); details: doses of 1 and 20 mg/kg PO, 30 min pretreatment, vs vehicle
From the text: The mice used in the current study are the offspring of breeding pairs (C3H/HeSnj-Cm) originally purchased from Jackson Laboratory, Bar Harbor, Me. Of the 48 mice tested, 22 were male and 26 were female, at age between 12–20 weeks old. These animals were weaned at 21 days age and were housed in 2 to 4 littermates per cage in our animal facility where standard animal husbandry was maintained. The colony room was kept under 12-hour light/12-hour dark cycles with the lights on at 7:00 a.m. Temperature was maintained between 20 and 23° C. with a relative humidity maintained between 30% and 70%. Animals received food chow and water provided ad libitum.
All compounds were dissolved in sterile injectable water, which served as the vehicle control. All solutions were prepared on the day of the experiments. Compound A as well as its vehicle (water) was given to animals orally (PO) in a volume of 10 ml/kg body weight; the reference compound was given to animals intraperitoneally (IP). […]
The study was conducted over two consecutive days with animals tested between 10:00 a.m. and 5:00 p.m. on each day. […] The results were recorded automatically and processed by microcomputer.
The open field activity monitor system (Med Associates, Inc.) measured general motor activity. […]
All data were analyzed by comparing the groups treated with the test substance to the vehicle control or reference treated groups. […]

[3] = test system: 129 svev mice (tail suspension), DBA/2J mice (forced swim); assay: Tail suspension and forced swim test; details: PO; tail suspension: once daily for 3 days
From the text: as §1
as §3, with “Thirty minutes pretreatment time was used in all tests except for SIH in which case compounds were given to the animals one hr before the test.” left out

## CC(=O)Nc1cccc(N2CCN(CCCCNS(=O)(=O)CC3CCCCC3)CC2)c1 [Compound A, N-{3-[4-(4-Cyclohexylmethanesulfonylamino-butyl)-piperazin-1-yl]-phenyl}-acetamide HCl]
C57B16/J mice; 3 mg/kg PO
  Closed Arm Entries: no change
  Total Entries: no change
  Open Arm Time: significant anxiolytic-like effect; also recorded: increase
  Proportion Open Arm Entries: significant anxiolytic-like effect; also recorded: increase
C57B16/J mice; 10 mg/kg PO
  Closed Arm Entries: no change
  Total Entries: no change
  Open Arm Time: did not reach statistical significance; also recorded: no change
  Proportion Open Arm Entries: did not reach statistical significance; also recorded: no change
C57B16/J mice; 20 mg/kg PO
  Closed Arm Entries: no change
  Total Entries: no change
  Open Arm Time: did not reach statistical significance; also recorded: no change
  Proportion Open Arm Entries: did not reach statistical significance; also recorded: no change
129 svev mice [1]; 1 mg/kg PO
  Basal Rectal Temperature: did not show significant effects; also recorded: no change
  Temperature Change (stress-induced hyperthermia): did not show significant effects; also recorded: no change
129 svev mice [1]; 3 mg/kg PO
  Basal Rectal Temperature: did not show significant effects; also recorded: no change
  Temperature Change (stress-induced hyperthermia): did not show significant effects; also recorded: no change
129 svev mice [1]; 20 mg/kg PO
  Basal Rectal Temperature: significant decrease
  Temperature Change (stress-induced hyperthermia): significant decrease
129 svev mice [2]; 1 mg/kg PO
  Frequency of Zone Crosses: No change
  Percent Distance in Center: No change
  Percent Time in Center: No change
  Total Distance (Horizontal): No change
  Vertical Activity (Rearing): No change
129 svev mice [2]; 3 mg/kg PO
  Frequency of Zone Crosses: no change
  Percent Distance in Center: no change
  Percent Time in Center: no change
  Total Distance (Horizontal): no change
  Vertical Activity (Rearing): no change
129 svev mice [2]; 20 mg/kg PO
  Frequency of Zone Crosses: no change
  Percent Distance in Center: no change
  Percent Time in Center: no change
  Total Distance (Horizontal): no change
  Vertical Activity (Rearing): no change
Coloboma mice
  hyperlocomotor activity (Distance Traveled): decreased the hyperlocomotor activity
[3]
  antidepressive properties: did not appear to have antidepressive properties
